Measurements: ChEMBL document CHEMBL4765434, “Pyrrolo[2,3-d]pyrimidine derivatives as inhibitors of RET: Design, synthesis and biological evaluation” (Eur J Med Chem, 2020)
The source made the active and inactive calls. The calls are words filed in the database; no cut-off is given here.

Experiments:
[1] = target: T1, Proto-oncogene tyrosine-protein kinase receptor Ret (Homo sapiens, UniProt P07949); test: Inhibition of recombinant human GST-tagged RET cytoplasmic domain (658 to 1114 residues) expressed in baculovirus expression system using 5-FAM-EEPLYWSFPAKKK-CONH2 as substrate preincubated for 60 mins followed by substrate addition by microfluidic assay
LC-2-ad [2] = test: Growth inhibition of human LC-2-ad cells measured after 3 days by resazurin staining based fluorescence assay; assay type: functional; settings: 72 h, time 3 day
LC-2-ad [3] = test: Inhibition of cell migration in human LC-2-ad cells assessed as migrated distance at 1 uM measured after 52 hrs by microscopic method (reference value: 819.01 +/- 65.76 micrometer); assay type: functional
[4] = target: Proto-oncogene tyrosine-protein kinase receptor Ret (Homo sapiens, UniProt P07949, V804M); test: Inhibition of recombinant human N-terminal GST-HIS6 fused RET V804M mutant (658 to 1114 residues) expressed in Sf9 insect cells using 5-FAM-EEPLYWSFPAKKK-CONH2 as substrate preincubated for 60 mins followed by substrate addition by microfluidic assay
Aurora kinase B = Aurora kinase B (Homo sapiens, UniProt Q96GD4); test: Inhibition of Aurora B (unknown origin)
[5] = target: T1, Proto-oncogene tyrosine-protein kinase receptor Ret; test: Non ATP-competitive inhibition of recombinant human GST-tagged RET cytoplasmic domain (658 to 1114 residues) expressed in baculovirus expression system at 3.125 to 50 nM using 5-FAM-EEPLYWSFPAKKK-CONH2 as substrate; settings: dose 3.125-50 nM
Aurora kinase A = target: T2, Aurora kinase A (Homo sapiens, UniProt O14965); test: Inhibition of Aurora A (unknown origin)
T2 sequence (O14965 whole entry): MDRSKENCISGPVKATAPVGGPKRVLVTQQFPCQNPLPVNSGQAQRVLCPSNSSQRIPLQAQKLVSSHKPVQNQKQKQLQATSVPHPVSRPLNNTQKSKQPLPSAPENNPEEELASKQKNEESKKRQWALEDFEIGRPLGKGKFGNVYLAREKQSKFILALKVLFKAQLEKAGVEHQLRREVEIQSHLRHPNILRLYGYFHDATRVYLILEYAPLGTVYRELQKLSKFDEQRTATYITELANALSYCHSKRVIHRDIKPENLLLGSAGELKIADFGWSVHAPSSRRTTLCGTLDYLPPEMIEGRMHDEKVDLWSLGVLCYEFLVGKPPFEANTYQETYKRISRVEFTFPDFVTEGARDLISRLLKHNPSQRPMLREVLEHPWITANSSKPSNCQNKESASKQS

[6] = target: Mitogen-activated protein kinase kinase kinase kinase 4 (Homo sapiens, UniProt O95819); test: Inhibition of MAP4K4 (unknown origin)
[7] = target: Epidermal growth factor receptor (Homo sapiens, UniProt P00533); test: Inhibition of EGFR (unknown origin)
[8] = target: Mitogen-activated protein kinase kinase kinase 14 (Homo sapiens, UniProt Q99558); test: Inhibition of NIK (unknown origin)
LC-2-ad [9] = test: Inhibition of cell migration in human LC-2-ad cells assessed as migrated distance at 3 uM measured after 52 hrs by microscopic method (reference value: 819.01 +/- 65.76 micrometer); assay type: functional
[10] = target: T1, Proto-oncogene tyrosine-protein kinase receptor Ret; test: Non competitive inhibition of recombinant human GST-tagged RET cytoplasmic domain (658 to 1114 residues) expressed in baculovirus expression system at 3.125 to 50 nM using 5-FAM-EEPLYWSFPAKKK-CONH2 as substrate by Lineweaver-burk plot analysis; settings: dose 3.125-50 nM
[11] = target: Macrophage colony-stimulating factor 1 receptor (Homo sapiens, UniProt P07333); test: Inhibition of CSF1R (unknown origin)
[12] = target: T3, Serine/threonine-protein kinase Nek2 (Homo sapiens, UniProt P51955); test: Inhibition of Nek2 (unknown origin)
T3 sequence (P51955 whole entry): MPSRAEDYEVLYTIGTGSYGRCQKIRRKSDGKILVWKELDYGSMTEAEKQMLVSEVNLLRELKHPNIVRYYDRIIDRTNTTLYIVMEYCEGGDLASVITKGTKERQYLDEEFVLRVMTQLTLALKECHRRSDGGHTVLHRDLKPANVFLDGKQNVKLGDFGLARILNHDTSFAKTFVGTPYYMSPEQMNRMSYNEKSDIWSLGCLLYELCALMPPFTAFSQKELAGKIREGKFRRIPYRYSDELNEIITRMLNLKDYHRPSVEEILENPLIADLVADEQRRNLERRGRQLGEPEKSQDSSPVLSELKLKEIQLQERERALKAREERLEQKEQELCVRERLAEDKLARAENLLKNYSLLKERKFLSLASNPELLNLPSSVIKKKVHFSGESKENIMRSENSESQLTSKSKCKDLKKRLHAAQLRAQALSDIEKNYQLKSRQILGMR

Chain of Proto-oncogene tyrosine-protein kinase receptor Ret (Homo sapiens, UniProt P07949, V804M) (P07949 29-1114 V804M limits assumed): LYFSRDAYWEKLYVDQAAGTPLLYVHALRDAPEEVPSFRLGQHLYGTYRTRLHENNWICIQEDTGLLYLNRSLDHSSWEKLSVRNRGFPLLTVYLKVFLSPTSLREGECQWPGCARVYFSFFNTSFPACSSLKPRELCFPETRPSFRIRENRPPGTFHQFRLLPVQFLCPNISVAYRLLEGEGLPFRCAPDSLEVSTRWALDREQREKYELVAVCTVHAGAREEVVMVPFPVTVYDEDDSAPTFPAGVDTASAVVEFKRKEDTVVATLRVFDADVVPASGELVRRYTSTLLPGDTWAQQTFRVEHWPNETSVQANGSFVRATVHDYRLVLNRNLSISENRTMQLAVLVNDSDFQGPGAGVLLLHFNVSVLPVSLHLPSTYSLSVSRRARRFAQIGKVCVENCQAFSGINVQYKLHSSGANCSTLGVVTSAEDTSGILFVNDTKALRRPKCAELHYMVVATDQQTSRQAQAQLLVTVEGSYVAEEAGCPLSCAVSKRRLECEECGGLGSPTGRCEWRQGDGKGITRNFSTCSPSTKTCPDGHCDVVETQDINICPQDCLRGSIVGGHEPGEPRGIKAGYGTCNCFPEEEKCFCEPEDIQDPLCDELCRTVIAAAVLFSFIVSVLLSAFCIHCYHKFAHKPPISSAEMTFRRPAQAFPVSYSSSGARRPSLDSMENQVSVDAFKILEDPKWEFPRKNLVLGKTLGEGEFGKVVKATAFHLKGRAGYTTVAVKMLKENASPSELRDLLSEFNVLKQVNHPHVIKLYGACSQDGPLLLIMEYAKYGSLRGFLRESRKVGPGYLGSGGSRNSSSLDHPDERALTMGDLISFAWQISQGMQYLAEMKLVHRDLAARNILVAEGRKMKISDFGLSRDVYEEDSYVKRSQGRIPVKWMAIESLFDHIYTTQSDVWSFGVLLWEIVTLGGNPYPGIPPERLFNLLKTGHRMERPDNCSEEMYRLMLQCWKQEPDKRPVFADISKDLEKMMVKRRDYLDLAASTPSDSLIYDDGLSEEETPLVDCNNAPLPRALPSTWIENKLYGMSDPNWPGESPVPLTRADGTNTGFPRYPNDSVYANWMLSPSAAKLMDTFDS
T1 sequence (P07949 whole entry, the tested form may be a part): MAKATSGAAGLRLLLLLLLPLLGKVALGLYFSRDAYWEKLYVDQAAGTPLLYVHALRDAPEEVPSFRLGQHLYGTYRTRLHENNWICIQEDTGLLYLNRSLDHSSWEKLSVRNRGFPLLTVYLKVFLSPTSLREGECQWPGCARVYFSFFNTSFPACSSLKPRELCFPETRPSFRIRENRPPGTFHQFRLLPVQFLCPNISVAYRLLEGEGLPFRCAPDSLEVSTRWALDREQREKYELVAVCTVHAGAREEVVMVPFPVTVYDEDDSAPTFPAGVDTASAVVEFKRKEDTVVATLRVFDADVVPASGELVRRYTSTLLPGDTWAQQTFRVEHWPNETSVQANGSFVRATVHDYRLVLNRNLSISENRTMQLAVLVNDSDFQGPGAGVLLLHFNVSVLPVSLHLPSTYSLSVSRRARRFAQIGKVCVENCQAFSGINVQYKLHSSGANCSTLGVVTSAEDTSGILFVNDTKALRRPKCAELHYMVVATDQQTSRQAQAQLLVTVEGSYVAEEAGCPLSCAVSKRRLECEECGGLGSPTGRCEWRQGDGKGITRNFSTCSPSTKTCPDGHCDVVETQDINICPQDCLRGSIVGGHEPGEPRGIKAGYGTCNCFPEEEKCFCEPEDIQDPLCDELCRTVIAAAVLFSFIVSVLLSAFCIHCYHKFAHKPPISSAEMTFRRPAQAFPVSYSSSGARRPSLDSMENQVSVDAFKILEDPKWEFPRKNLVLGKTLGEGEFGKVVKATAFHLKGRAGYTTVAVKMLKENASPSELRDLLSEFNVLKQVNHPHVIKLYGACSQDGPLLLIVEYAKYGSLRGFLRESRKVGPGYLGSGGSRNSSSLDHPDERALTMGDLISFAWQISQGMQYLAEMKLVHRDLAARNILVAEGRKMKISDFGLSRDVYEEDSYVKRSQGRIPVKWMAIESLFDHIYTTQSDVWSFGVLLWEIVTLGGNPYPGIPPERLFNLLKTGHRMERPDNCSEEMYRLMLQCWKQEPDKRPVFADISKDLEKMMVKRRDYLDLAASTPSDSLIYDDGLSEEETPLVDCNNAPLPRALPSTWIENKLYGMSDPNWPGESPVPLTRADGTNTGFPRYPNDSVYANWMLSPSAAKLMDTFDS
Chain of Aurora kinase B (Q96GD4 whole entry, the tested form may be a part): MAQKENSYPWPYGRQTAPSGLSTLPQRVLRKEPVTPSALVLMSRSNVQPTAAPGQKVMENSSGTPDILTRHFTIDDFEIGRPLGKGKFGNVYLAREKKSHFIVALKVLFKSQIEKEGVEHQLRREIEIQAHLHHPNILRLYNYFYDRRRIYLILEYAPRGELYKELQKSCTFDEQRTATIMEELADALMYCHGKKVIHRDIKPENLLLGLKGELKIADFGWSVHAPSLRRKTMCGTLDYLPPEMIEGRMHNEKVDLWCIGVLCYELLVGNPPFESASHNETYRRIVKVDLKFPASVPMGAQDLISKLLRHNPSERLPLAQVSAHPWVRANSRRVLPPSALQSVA
Chain of Mitogen-activated protein kinase kinase kinase kinase 4 (O95819 whole entry): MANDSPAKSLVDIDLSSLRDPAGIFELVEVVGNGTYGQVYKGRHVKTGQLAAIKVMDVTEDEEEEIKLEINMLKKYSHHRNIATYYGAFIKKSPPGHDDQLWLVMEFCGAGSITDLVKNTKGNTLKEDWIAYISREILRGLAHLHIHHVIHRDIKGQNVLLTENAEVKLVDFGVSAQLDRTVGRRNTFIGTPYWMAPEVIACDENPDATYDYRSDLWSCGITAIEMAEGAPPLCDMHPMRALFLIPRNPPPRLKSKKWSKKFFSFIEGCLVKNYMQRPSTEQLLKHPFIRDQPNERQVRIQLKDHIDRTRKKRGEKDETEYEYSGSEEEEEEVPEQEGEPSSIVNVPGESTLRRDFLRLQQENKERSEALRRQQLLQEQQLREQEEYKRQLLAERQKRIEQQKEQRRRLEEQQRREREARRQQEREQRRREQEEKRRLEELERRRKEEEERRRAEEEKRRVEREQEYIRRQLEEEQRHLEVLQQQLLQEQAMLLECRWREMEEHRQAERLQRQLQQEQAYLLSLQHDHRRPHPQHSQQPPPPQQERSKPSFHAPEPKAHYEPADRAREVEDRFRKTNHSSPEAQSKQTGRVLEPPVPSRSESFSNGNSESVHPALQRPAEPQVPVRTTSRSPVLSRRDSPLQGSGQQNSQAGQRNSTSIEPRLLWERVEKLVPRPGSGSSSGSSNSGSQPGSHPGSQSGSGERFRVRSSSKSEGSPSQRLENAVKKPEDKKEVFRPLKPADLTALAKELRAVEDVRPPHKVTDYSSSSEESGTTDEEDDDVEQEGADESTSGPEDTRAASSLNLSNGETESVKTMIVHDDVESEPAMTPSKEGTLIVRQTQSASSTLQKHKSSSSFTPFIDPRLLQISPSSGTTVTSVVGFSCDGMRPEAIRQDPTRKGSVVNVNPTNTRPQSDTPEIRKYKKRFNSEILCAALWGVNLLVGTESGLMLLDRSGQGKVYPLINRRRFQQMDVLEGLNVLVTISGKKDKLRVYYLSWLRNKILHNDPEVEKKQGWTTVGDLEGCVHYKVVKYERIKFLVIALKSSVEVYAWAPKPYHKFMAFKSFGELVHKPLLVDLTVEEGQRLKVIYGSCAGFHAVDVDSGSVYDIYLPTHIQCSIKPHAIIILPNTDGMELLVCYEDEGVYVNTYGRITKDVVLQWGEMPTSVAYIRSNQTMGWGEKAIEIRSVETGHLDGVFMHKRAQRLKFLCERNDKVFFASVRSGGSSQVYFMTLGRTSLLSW
Chain of Mitogen-activated protein kinase kinase kinase 14 (Q99558 whole entry): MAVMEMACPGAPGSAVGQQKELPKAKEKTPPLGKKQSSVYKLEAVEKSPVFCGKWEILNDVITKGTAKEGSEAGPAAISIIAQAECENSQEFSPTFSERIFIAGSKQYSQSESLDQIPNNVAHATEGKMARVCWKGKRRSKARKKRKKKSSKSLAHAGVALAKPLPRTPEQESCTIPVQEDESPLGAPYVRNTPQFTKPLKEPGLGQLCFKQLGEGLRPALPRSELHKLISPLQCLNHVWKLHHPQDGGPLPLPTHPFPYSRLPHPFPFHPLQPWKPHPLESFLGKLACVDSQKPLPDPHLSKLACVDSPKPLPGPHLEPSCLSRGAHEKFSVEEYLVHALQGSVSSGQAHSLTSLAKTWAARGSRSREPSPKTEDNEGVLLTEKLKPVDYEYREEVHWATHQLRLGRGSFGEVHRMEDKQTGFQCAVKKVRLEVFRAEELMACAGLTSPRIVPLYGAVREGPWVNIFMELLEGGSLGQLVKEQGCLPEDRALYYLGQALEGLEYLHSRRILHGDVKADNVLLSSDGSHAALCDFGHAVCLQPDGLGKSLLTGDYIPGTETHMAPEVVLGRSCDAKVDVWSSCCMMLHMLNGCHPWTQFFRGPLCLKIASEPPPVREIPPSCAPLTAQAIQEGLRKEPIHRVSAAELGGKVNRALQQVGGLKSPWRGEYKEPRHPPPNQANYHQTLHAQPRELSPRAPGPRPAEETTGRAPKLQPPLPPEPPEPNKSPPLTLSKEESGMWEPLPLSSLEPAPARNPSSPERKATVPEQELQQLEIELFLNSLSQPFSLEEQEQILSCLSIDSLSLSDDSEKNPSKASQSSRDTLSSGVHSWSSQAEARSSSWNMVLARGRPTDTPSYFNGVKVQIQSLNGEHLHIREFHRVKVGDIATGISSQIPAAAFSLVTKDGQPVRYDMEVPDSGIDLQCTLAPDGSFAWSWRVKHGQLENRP

CC(C)(C)c1cc(NC(=O)Cc2ccc(Nc3ncnc4[nH]c(-c5ccsc5)cc34)cc2)no1
IC50 [1]: 0.05 µM | GI50 (LC-2-ad [2]): 0.18 µM

CC(C)(C)c1ccc(-c2cc3c(Nc4ccc(CC(=O)Nc5cc(C(C)(C)C)on5)cc4)ncnc3[nH]2)cc1
IC50 [1]: 13.5 µM

Cn1nc(C(C)(C)C)cc1NC(=O)Cc1ccc(Nc2ncnc3[nH]ccc23)cc1
IC50 [1]: 0.127 µM | GI50 (LC-2-ad [2]): 1.65 µM

COc1ccc(-c2cc3c(Nc4ccc(CC(=O)Nc5cccc(F)c5)cc4)ncnc3[nH]2)cc1
IC50 [1]: > 20 µM

Cn1cc(-c2cc3c(Nc4ccc(CC(=O)Nc5cccc(F)c5)cc4)ncnc3[nH]2)cn1
IC50 [1]: > 20 µM

Cn1nc(C(C)(C)C)cc1NC(=O)Cc1cccc(Nc2ncnc3[nH]ccc23)c1
IC50 [1]: 39.6 µM

O=C(Cc1ccc(Nc2ncnc3[nH]ccc23)cc1)NCc1ccccc1
IC50 [1]: 4.65 µM

COc1cc(NC(=O)Cc2ccc(Nc3ncnc4[nH]ccc34)cc2)cc(OC)c1OC
IC50 [1]: 47.6 µM

CC(C)(C)c1cc(NC(=O)Cc2cccc(Nc3ncnc4[nH]ccc34)c2)no1
IC50 [1]: 31.6 µM | GI50 (LC-2-ad [2]): 43.7 µM

O=C(Cc1ccc(Nc2ncnc3[nH]ccc23)cc1)Nc1ccc(OC(F)(F)F)cc1
IC50 [1]: > 20 µM

COc1ccc(-c2cc3c(Nc4ccc(CC(=O)Nc5cc(C(C)(C)C)nn5C)cc4)ncnc3[nH]2)cc1
IC50 [1]: 0.12 µM

O=C(Cc1ccc(Nc2ncnc3sccc23)cc1)Nc1cccc(F)c1
IC50 [1]: > 20 µM

CC(C)(C)c1cc(NC(=O)Cc2ccc(Nc3ncnc4[nH]ccc34)cc2)no1
IC50 [1]: 0.076 µM | GI50 (LC-2-ad [2]): 1.26 µM

O=C(Cc1ccc(Nc2ncnc3[nH]ccc23)cc1)Nc1cccc(C(F)(F)F)c1
IC50 [1]: 16.2 µM | GI50 (LC-2-ad [2]): 33.5 µM

O=C(Cc1ccc(Nc2ncnc3[nH]ccc23)cc1)Nc1ccc(C(F)(F)F)c(Cl)c1
IC50 [1]: > 20 µM

CC(C)c1ccc(NC(=O)Cc2ccc(Nc3ncnc4[nH]c(-c5cnn(C)c5)cc34)cc2)cc1
IC50 [1]: > 20 µM

Cn1ccc2c(Nc3ccc(CC(=O)Nc4cc(C(C)(C)C)on4)cc3)ncnc21
IC50 [1]: 3.51 µM

O=C(Cc1ccc(Nc2ncnc3[nH]ccc23)cc1)Nc1cccc(F)c1
IC50 [1]: > 20 µM

COc1cc2nccc(Oc3ccc(NC(=O)C4(C(=O)Nc5ccc(F)cc5)CC4)cc3)c2cc1OC [CABOZANTINIB]
Activity (LC-2-ad [3]): 287.3 um

Cn1nc(C(C)(C)C)cc1NC(=O)Cc1ccc(Nc2ncnc3[nH]c(-c4ccsc4)cc23)cc1
IC50 [1]: 0.052 µM

O=C(Cc1ccc(Nc2ncnc3[nH]ccc23)cc1)NC1CCC1
IC50 [1]: 3.91 µM

CC(C)(C)c1cc(NC(=O)Cc2ccc(Nc3ncnc4sccc34)cc2)no1
IC50 [1]: 0.96 µM | GI50 (LC-2-ad [2]): 15.2 µM

Cn1nc(C(C)(C)C)cc1NC(=O)Cc1ccc(Nc2ncnc3sccc23)cc1
IC50 [1]: 1.06 µM | GI50 (LC-2-ad [2]): 17.5 µM

Cn1cc(-c2cc3c(Nc4ccc(CC(=O)Nc5cc(C(C)(C)C)on5)cc4)ncnc3[nH]2)cn1
IC50 [4]: 0.0635 µM | IC50 [1]: 0.009 µM | GI50 (LC-2-ad [2]): 0.136 µM

CC(C)(C)c1cc(NC(=O)Cc2ccc(Nc3ncnc4[nH]c(-c5ccc(S(C)(=O)=O)cc5)cc34)cc2)no1
IC50 (Aurora kinase B): 0.536 µM | IC50 [4]: 0.0135 µM | inhibition [5]: Active | IC50 (Aurora kinase A): 0.242 µM | IC50 [6]: 3.43 µM | IC50 [1]: 0.0068 µM | IC50 [7]: 56.8 µM | IC50 [8]: > 10 µM | Activity (LC-2-ad [9]): 356.41 um | inhibition [10]: Active | IC50 [11]: 1.65 µM | IC50 [12]: > 200 µM | GI50 (LC-2-ad [2]): 0.107 µM

Cn1cc(-c2cc3c(Nc4ccc(CC(=O)Nc5cc(C(C)(C)C)nn5C)cc4)ncnc3[nH]2)cn1
IC50 [4]: 0.0728 µM | IC50 [1]: 0.021 µM

O=C(Cc1ccc(Nc2ncnc3[nH]c(-c4ccsc4)cc23)cc1)Nc1cccc(F)c1
IC50 [1]: > 20 µM

CC(=O)c1ccc(-c2cc3c(Nc4ccc(CC(=O)Nc5cc(C(C)(C)C)on5)cc4)ncnc3[nH]2)cc1
IC50 [1]: 0.044 µM

CC(C)(C)c1ccc(NC(=O)Cc2ccc(Nc3ncnc4[nH]ccc34)cc2)cc1
IC50 [1]: 15.8 µM

COc1ccc(-c2cc3c(Nc4ccc(CC(=O)Nc5ccc(F)cc5)cc4)ncnc3[nH]2)cc1
IC50 [1]: > 20 µM

Cn1nc(C(C)(C)C)cc1NC(=O)Cc1ccc(Nc2ncnc3c2ccn3C)cc1
IC50 [1]: 3.93 µM | GI50 (LC-2-ad [2]): 36.4 µM

Cn1nc(C(C)(C)C)cc1NC(=O)Cc1ccc(Nc2ncnc3[nH]c(-c4ccc(S(C)(=O)=O)cc4)cc23)cc1
IC50 [1]: 0.009 µM

CC(C)c1ccc(NC(=O)Cc2ccc(Nc3ncnc4[nH]ccc34)cc2)cc1
IC50 [1]: 7.69 µM | GI50 (LC-2-ad [2]): 29.6 µM

COc1ccc(-c2cc3c(Nc4ccc(CC(=O)Nc5ccc(C(C)C)cc5)cc4)ncnc3[nH]2)cc1
IC50 [1]: 2.44 µM

CS(=O)(=O)c1ccc(NC(=O)Cc2ccc(Nc3ncnc4[nH]ccc34)cc2)cc1
IC50 [1]: > 20 µM

CC(C)(C)c1ccc(-c2cc3c(Nc4ccc(CC(=O)Nc5cccc(F)c5)cc4)ncnc3[nH]2)cc1
IC50 [1]: > 20 µM

O=C(Cc1ccc(Nc2ncnc3[nH]ccc23)cc1)Nc1ccc2c(c1)OCO2
IC50 [1]: > 20 µM

Cn1cc(-c2cc3c(Nc4ccc(CC(=O)Nc5cc(C(C)(C)C)on5)cc4)ncnc3s2)cn1
IC50 [1]: 0.82 µM

O=C(Cc1ccc(Nc2ncnc3[nH]ccc23)cc1)Nc1cccc2ncccc12
IC50 [1]: 19 µM

Cn1cc(-c2cc3c(Nc4ccc(CC(=O)Nc5cc(C(C)(C)C)nn5C)cc4)ncnc3s2)cn1
IC50 [1]: 1.39 µM

O=C(Cc1ccc(Nc2ncnc3[nH]ccc23)cc1)NC1CC1
IC50 [1]: 2.37 µM | GI50 (LC-2-ad [2]): 14 µM
